What was measured:
PDGF-R = PDGF-R (Homo sapiens, UniProt P09619); assay: PDGF-R ELISA; type: cell-based
Source text: A PDGF-R ELISA is described in International Patent Publication No. WO 96/40116, published December 19, 1996 by Tang et al.

MET = MET biochemical kinase assay; parameters: species or system human; concentration or dose not given beside the values
In short: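 Lysate-derived MET, or chimeric receptors, is immobilised on plates through an antibody to the human MET cytoplasmic region. Compounds are added along with kinase buffer supplying ATP and divalent metal ions, and receptor autophosphorylation is quantified by anti-phosphotyrosine ELISA.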

FLK-1 receptor = molecular target: T1, FLK-1 receptor (Mus musculus, UniProt P35918); assay: FLK-1 ELISA (kinase activity of the FLK-1 receptor in FLK-1/NIH3T3 cells, VEGF stimulated); type: cell-based; parameters: concentration or dose not given beside the values
T1 construct: expressed in transfected cells; host or cells: NIH3T3 C7#3
T1 sequence (P35918 20-1345): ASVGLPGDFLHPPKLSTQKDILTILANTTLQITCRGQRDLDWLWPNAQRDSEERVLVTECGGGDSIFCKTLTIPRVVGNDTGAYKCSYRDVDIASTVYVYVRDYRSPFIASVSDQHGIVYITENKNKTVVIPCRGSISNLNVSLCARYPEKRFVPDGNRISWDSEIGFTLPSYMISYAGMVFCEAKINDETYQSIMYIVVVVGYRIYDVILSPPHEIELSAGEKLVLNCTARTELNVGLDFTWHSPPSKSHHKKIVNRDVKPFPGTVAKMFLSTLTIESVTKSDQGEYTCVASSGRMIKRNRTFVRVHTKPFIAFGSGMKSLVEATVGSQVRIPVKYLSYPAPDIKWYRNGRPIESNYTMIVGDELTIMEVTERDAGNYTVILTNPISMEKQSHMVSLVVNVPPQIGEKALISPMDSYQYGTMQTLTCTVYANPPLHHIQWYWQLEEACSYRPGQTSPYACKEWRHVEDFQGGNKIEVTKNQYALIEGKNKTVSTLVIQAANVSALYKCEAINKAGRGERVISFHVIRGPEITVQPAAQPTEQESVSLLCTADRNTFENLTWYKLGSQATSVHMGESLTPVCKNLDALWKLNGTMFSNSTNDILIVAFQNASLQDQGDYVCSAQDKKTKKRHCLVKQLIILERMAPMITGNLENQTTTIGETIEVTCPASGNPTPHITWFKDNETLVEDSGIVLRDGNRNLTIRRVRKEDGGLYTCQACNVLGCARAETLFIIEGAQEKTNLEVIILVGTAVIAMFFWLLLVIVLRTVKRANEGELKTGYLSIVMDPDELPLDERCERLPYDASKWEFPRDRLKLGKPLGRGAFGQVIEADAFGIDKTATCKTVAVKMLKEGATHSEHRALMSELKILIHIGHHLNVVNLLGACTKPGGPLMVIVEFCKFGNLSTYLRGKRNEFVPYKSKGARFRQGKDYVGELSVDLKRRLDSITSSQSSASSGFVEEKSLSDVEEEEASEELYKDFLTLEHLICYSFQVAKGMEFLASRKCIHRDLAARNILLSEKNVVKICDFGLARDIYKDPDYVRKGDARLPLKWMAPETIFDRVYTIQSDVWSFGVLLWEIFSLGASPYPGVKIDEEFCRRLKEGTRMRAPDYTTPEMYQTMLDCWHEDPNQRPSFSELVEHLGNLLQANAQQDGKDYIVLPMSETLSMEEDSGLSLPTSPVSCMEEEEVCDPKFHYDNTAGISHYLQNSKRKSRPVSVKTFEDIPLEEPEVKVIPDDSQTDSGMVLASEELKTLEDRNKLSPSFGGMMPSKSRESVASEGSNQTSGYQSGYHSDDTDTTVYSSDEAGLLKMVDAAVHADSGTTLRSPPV
In short: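 NIH3T3 C7#3 cells expressing FLK-1 were seeded at 25.000 cells/well, serum-starved overnight in 0.1% FBS, then treated with compound for two hours at 37°C (final DMSO 0.5%) before VEGF stimulation. Receptor was captured on anti-rabbit IgG-coated ELISA plates bearing affinity-purified anti-FLK-1 antiserum.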

PDGF-R, sequence (P09619 33-1106, species assumed): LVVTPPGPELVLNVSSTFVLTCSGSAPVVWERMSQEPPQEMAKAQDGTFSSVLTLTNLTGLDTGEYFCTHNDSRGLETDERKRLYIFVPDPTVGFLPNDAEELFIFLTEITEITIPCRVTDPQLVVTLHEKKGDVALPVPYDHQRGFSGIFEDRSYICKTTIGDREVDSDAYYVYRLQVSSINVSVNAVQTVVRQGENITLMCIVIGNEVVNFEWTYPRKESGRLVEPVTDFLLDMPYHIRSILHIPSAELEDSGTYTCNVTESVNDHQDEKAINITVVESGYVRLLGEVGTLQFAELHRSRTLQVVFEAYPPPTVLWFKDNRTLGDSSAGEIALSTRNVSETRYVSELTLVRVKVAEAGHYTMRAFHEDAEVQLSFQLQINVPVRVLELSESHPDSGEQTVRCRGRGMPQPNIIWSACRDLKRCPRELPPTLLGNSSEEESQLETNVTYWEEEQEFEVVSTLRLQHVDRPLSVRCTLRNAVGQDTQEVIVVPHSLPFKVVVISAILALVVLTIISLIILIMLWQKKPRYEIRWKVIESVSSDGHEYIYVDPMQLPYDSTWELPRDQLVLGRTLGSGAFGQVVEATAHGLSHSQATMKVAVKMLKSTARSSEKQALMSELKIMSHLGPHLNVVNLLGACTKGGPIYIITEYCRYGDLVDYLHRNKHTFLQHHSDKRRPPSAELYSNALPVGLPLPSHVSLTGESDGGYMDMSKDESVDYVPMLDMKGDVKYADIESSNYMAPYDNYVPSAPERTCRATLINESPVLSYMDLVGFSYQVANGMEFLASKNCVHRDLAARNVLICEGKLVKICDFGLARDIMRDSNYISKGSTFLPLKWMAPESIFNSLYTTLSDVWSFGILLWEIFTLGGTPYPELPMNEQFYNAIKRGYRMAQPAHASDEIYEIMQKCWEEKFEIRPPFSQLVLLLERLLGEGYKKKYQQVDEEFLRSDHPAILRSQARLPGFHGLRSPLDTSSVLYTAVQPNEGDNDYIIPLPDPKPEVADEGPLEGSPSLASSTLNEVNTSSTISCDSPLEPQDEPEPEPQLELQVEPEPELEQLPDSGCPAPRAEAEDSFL

SMILES	PDGF Kinase %Inhibition (PDGF-R) [%]	Met Kinase % Inhibition (MET) [%]	Fik Kinase %Inhibition (FLK-1 receptor) [%]
O=C1Nc2ccc(I)cc2C1=Cc1coc2c(Br)cc(Br)cc2c1=O [10730/B09]	15.1	70.6	9.4
O=C1Nc2c(Br)cc(Br)cc2C1=Cc1ccc(-c2ccccc2Cl)o1 [10730/A07]	-23.9	55.4	-18.9
O=C1Nc2ccc(S(=O)(=O)Nc3ccc(C(F)(F)F)cc3)cc2C1=Cc1ccc(N2CCCC2)cc1 [10729/E10]	11.8	7.5	5.7
O=C1Nc2ccc(CCCl)cc2C1=Cc1cccc(Oc2ccccc2)c1 [10729/G06]	11.8	26.0	10.9
Cc1c(O)ccc(C=C2C(=O)Nc3ccc(I)cc32)c1O [10718/B09]		52.9	-14.7
O=C1Nc2ccc(S(=O)(=O)Nc3ccc(C(F)(F)F)cc3)cc2C1=Cc1ccncc1 [10729/E09]	-11.7	85.0	6.9
O=C1Nc2ccc(CCCl)cc2C1=Cc1ccncc1 [10729/G09]	1.9	49.6	-3.3
O=C1Nc2ccc(CCCl)cc2C1=Cc1ccc(N2CCCC2)cc1 [10729/G10]	-13.2	26.7	-9.1
CNS(=O)(=O)c1ccc2c(c1)C(=Cc1cc(OC)c(OC)cc1OC)C(=O)N2 [10730/D03]	19.0	34.2	8.4
Cc1c(Br)ccc2c1C(=Cc1ccc3ccccc3c1O)C(=O)N2 [10718/C04]		93.1	15.3
Cc1c(Br)ccc2c1C(=Cc1cc3ccccc3nc1Cl)C(=O)N2 [10730/C08]	8.5	56.5	-2.3
CNS(=O)(=O)c1ccc2c(c1)C(=CC1CC(OC)OC1OC)C(=O)N2 (stereo not drawn) [10730/D10]	-3.3	18.5	-15.3
COc1cc(OC)c(OC)cc1C=C1C(=O)Nc2ccc(I)cc21 [10730/B03]	17.3	78.3	-0.5
O=C1Nc2ccc(S(=O)(=O)Nc3ccc(C(F)(F)F)cc3)cc2C1=Cc1coc2ccc(Cl)cc2c1=O [10730/E06]	26.0	52.8	11.1
Cc1cc(C=C2C(=O)Nc3c(Br)cc(Br)cc32)oc1C [10730/A11]	-6.4	91.0	6.8
COc1cc(Br)c(O)c(C=C2C(=O)Nc3ccc(Br)c(C)c32)c1 [10718/C03]		95.7	-13.9
O=C1Nc2ccc(S(=O)(=O)Nc3ccc(C(F)(F)F)cc3)cc2C1=Cc1cccnc1 [10729/E08]	11.0	73.7	10.9
O=C1Nc2ccc(CCCl)cc2C1=Cc1cccnc1 [10729/G08]	0.8	39.9	-1.0
COc1ccc(C=C2C(=O)Nc3c(Br)cc(Br)cc32)c(OC)c1OC [10730/A02]	-23.1	39.5	-3.7
CC(=O)n1cc(C=C2C(=O)Nc3c(Br)cc(Br)cc32)c2ccccc21 [10730/A05]	2.8	42.7	-10.8
COc1cc(OC)c(OC)cc1C=C1C(=O)Nc2ccc(Br)c(C)c21 [10730/C03]	36.5	43.2	25.5

SMILES	PDGF Kinase %Inhibition (PDGF-R) [%]	Met Kinase % Inhibition (MET) [%]	Fik Kinase %Inhibition (FLK-1 receptor) [%]
O=C1Nc2ccc(I)cc2C1=Cc1cc2ccccc2nc1Cl [10730/B08]	0.2	91.8	4.4
CSc1ccc(C=C2C(=O)Nc3ccc(CCCl)cc32)cc1 [10729/G04]	1.6	18.2	12.2
O=C1Nc2ccc(CCCl)cc2C1=Cc1ccccn1 [10729/G07]	14.4	38.2	-2.5
Cc1cc(C=C2C(=O)Nc3ccc(Br)c(C)c32)oc1C [10730/C11]	16.4	66.6	-8.0
Cc1cc(C=C2C(=O)Nc3ccc(S(=O)(=O)Nc4ccc(C(F)(F)F)cc4)cc32)oc1C [10730/E11]	31.7	77.2	29.1
O=C1Nc2ccc(S(=O)(=O)Nc3ccc(C(F)(F)F)cc3)cc2C1=Cc1coc2c(Br)cc(Br)cc2c1=O [10730/E09]	20.3	33.9	21.8
O=C1Nc2ccc(S(=O)(=O)Nc3ccc(C(F)(F)F)cc3)cc2C1=Cc1cc2ccccc2nc1Cl [10730/E08]	48.4	40.3	25.1
COc1cc(C=C2C(=O)Nc3ccc(I)cc32)cc(OC)c1OC [10730/B04]	7.2	73.2	12.8
COc1cc(OC)c(OC)cc1C=C1C(=O)Nc2c(Br)cc(Br)cc21 [10730/A03]	-11.2	62.3	-3.2
COC1CC(C=C2C(=O)Nc3ccc(I)cc32)C(OC)O1 (stereo not drawn) [10730/B10]	19.0	69.5	15.2
O=C1Nc2ccc(S(=O)(=O)Nc3ccc(C(F)(F)F)cc3)cc2C1=Cc1ccc(-c2ccccc2Cl)o1 [10730/E07]	30.0	37.1	12.0
COc1ccc2ccccc2c1C=C1C(=O)Nc2ccc(CCCl)cc21 [10729/G02]	16.7	31.3	18.8
O=C1Nc2c(Br)cc(Br)cc2C1=Cc1ccc(Br)cc1 [10717/A08]		21.7	-5.2
CNS(=O)(=O)c1ccc2c(c1)C(=Cc1ccc(-c3ccccc3Cl)o1)C(=O)N2 [10730/D07]	5.0	52.5	8.8
CC(=O)n1cc(C=C2C(=O)Nc3ccc(S(=O)(=O)N4CCOCC4)cc32)c2ccccc21 [10730/F05]	19.5	23.5	19.6
CNS(=O)(=O)c1ccc2c(c1)C(=Cc1cn(C(C)=O)c3ccccc13)C(=O)N2 [10730/D05]	-1.6	38.1	11.9
COC(=O)c1[nH]c(C)c(C=C2C(=O)Nc3ccc(I)cc32)c1C(=O)OC [10718/B07]		53.7	17.7
O=C1Nc2ccc(I)cc2C1=Cc1ccc([N+](=O)[O-])o1 [10718/B11]		69.6	4.5
O=C1Nc2ccc(I)cc2C1=Cc1ccco1 [10718/B10]		83.6	20.1
O=C1Nc2ccc(I)cc2C1=Cc1ccc(Cl)c([N+](=O)[O-])c1 [10718/B08]		63.4	5.4
CCOC(=O)c1c(C)[nH]c(C=C2C(=O)Nc3ccc(Br)c(C)c32)c1C [10718/C02]		29.6	26.2
